Results from patent EP0486921A1, “N-acetyl-L-cysteine magnesium salt and pharmaceutical compositions containing it” (ZAMBON GROUP S.p.A., priority 1990, dated 1992).
Counter-ions that a name gives are not always drawn.

Assays:
[1] = system: anesthetized guinea pigs; details: guinea pig, in vivo
Experimental: The experiments were carried out according to the Konzett and Rössler technique [Arch. Exp. Patol. Pharmakol., 195, 71, (1940)] in anesthetized guinea pigs, where the potential increase in total airway resistance induced by the tested compounds was registered as a change in air overflow.
Male guinea pigs (500-600 g body weight) were anesthetized with ethylurethane (1.25 g/kg/i.p.) and the anesthesia was maintained by additional doses of ethylurethane given by intravenous route.
A catheter was inserted into the jugular vein for the administration of histamine.
The guinea pigs were subjected to forced ventilation at constant volume and at 72 breaths/minute.
Basal overflow value was set up to 8 cm H20.
Equimolecular doses of N-acetyl-L-cysteine in the form of free acid, lysine salt, calcium salt and magnesium salt [(NAC)2Mg] were administered as a micronized powder in trachea by forced insufflation.
The bronchoconstrictive effect was evaluated as the equivalent dose of histamine causing the same change in air overflow.
In control experiments the effect of forced insufflation of lactose was evaluated.

[2] = pH of aqueous solution; type: physicochemical; details: 1 % aqueous solution
From the text: pH (1 % aqueous solution) = 5.35

[3] = Solubility in water; type: physicochemical
From the text: solubility in water: about 50%

[4] = system: predisposed subjects; details: the patent says tested doses were much lower than therapeutically useful doses; cited from earlier work

SMILES: CC(=O)N[C@@H](CS)C(=O)O [(NAC)2Mg, N-acetyl-L-cysteine magnesium salt]
- Histamine dose X-±S.E. (dose of hystamine causing a bronchospasm equivalent to the change in air overflow) [1]: 3.96±0.28 ^(**) µg/kg/i.v.
- bronchoconstrictive effect compared with N-acetyl-L-cysteine [1]: significantly lower
- pH [2]: 5.35
- solubility [3]: ~500 mg/mL

SMILES: CC(=O)N[C@@H](CS)C(=O)O [NAC calcium salt]
- Histamine dose X-±S.E. (dose of hystamine causing a bronchospasm equivalent to the change in air overflow) [1]: 7.03±1.48 µg/kg/i.v.
- bronchoconstrictive effect compared with N-acetyl-L-cysteine [1]: not significantly different

SMILES: CC(=O)N[C@@H](CS)C(=O)O [NAC lysine salt]
- Histamine dose X-±S.E. (dose of hystamine causing a bronchospasm equivalent to the change in air overflow) [1]: 4.53±0.40 µg/kg/i.v.
- induction of bronchospasm [4]: does not induce bronchospasm

SMILES: CC(=O)N[C@@H](CS)C(=O)O [NAC, N-acetyl-L-cysteine]
- Histamine dose X-±S.E. (dose of hystamine causing a bronchospasm equivalent to the change in air overflow) [1]: 5.81±0.93 µg/kg/i.v.
